Patent US20030229105A1, “Treatment of autoimmune disorders” (Cyclacel Limited, priority 2002, published 2003)

Assays:
HIV-1 = assay: p24 antigen ELISA of supernatants from induced HIV-1 latently infected cells (ACH2, 8E5, U1); type: cell-based; conditions: for inhibition of HIV-1 replication, prolonged treatment: U1 and 8E5 cells, up to 21 days, 5 or 10 μM (data not shown); for postintegrative HIV-1 progeny formation: low concentrations (data not shown)
Procedure: We chose HIV-1 stably integrated cells, lymphocytic ACH2 and 8E5 cell lines, as well as monocytic U1 cells (and their uninfected parental counterparts CEM and U937, respectively) for our initial studies, since viral transcription could be activated and scored through signals, such as Tat, TNF-α or phorbol myristate acetate (PMA) and PHA. We first activated viruses in these cells with TNF-α (10 ng/ml) at 37° C. for 2 h, followed by washing, and then we incubated cells with 10 μM concentrations of each drug. […] We next examined the effect of all three drugs on primary HIV-1 field isolates of SI and NSI strains. Activated PBMC were infected with two independent HIV-1 viral strains of SI (UG/92/029, subtype A envelope) and NSI (THA/92/001, subtype E envelope).
Five days later, the supernatants were collected, and the amount of newly synthesized HIV-1 was measured by p24 antigen assay. (B) Purified Tat (300 μg) was electroporated into ACH2, 8E5, and U1 cells and subsequently treated with various drugs for 5 days. […] Seven days later samples were collected and used for p19 gag ELISA. (E) PHA-activated PBMC (5×10^6) were infected with HIV-1 either SI (UG/92/029 Uganda strain, subtype A envelope) or NSI (THA/92/001, Thailand strain, subtype E envelope) strains. Unadsorbed viruses were washed after 6 h, and cells were cultured in fresh media with various cdk inhibitors (10 μM). Samples were collected every sixth day and used for p24 gag ELISA assay.
At days 2, 4, and 6, the supernatants were collected, and the released HIV-1 particles were measured by using a p24 antigen ELISA assay. (B) Twenty micrograms of total RNA was separated on an RNA-formaldehyde-agarose gel, transferred, and probed with full-length labeled HIV-1 genome RNA. The hybridized genomic RNA, singly spliced (structural), and doubly spliced (regulatory) RNAs were exposed and counted by using Molecular Dynamic PhosphorImager software.
Supernatants from the infected PBMC were collected and used directly for the p24 antigen assay. The p24 gag antigen level was analyzed by using the HIVAG-1 Monoclonal Antibody Kit (Abbott Laboratories, Diagnostics Division). The HTLV-1 p19 core antigen ELISA kit was from Retro-Tek (Cellular Products).

CEM cells = assay: Cell proliferation, [3H]thymidine incorporation; type: cell-based; conditions: ca. 10 μM
Text: We next sought to determine whether the inhibition of HIV-1 transcription, observed above, could be mediated specifically by cdk inhibitors or by general cell cycle inhibitors. To distinguish between the two possibilities, we performed transfection experiments with all three cdk inhibitors tested above and two other well-established cell cycle inhibitors, namely, hydroxyurea and nocodazole. Hydroxyurea blocks DNA replication by inhibiting ribonucleotide reductase and thus arrests cell cycle progression at the G1/S checkpoint, while nocodazole blocks at G2/M by promoting tubulin depolymerization. […] Therefore, the basal transcription of HIV-1 was inhibited by purine analogs and not general cell cycle inhibitors.
FIG. 3 discloses inhibition of HIV-1 basal and activated transcription by cdk inhibitors. […] The graphs at the bottom of the figure represent the effect of various concentrations of general cell cycle inhibitors (hydroxyurea and nocodazole) on CEM cells. (B) Inhibition of activated transcription in CEM cells was examined using transfected HIV-1 LTR-CAT, together with pcTat plasmid. […]
Cells (CEM) were initially treated with various concentrations of hydroxyurea or nocodazole and evaluated after 0, 12, 24, 48, 60, and 72 h. […] The amount of radioactivity incorporated into the DNA was measured in a liquid scintillation counter (Packard) and expressed as the counts per minute (cpm). […]

[1] = system: uninfected T and monocytic cells; assay: Initial test of cdk inhibitors on uninfected cells (data not shown)

SMILES	inhibition of HIV-1 replication, prolonged treatment (HIV-1)	postintegrative HIV-1 progeny formation (HIV-1)	inhibition of DNA synthesis (CEM cells)	toxicity in uninfected cells [1]
COC(=O)Nc1nc2ccc(C(=O)c3cccs3)cc2[nH]1 [nocodazole, reference compound]	neither hydroxyurea nor nocodazole was able to inhibit HIV-1 replication	slightly higher	no inhibition of DNA synthesis was observed	–
NC(=O)NO [hydroxyurea, reference compound]	neither hydroxyurea nor nocodazole was able to inhibit HIV-1 replication	remained essentially the same	no inhibition of DNA synthesis was observed	–
Cn1cnc2c(NCc3ccccc3)nc(NCCO)nc21 [Olomoucine]	–	–	–	lack of toxicity
